{"source": "patent US11529359B2", "about": "“Use of GABAA receptor modulators for treatment of itch” (UNIVERSITÄT ZÜRICH, priority 2016, dated 2022)", "key": {"α-Me-5HT-induced itch": {"test_system": "α-Me-5HT-induced itch", "assay": "α-methyl 5-HT-induced itch (cheek injection) in wild-type mice", "format": "in vivo, wild-type mice (129X1/SvJ)", "conditions": "1 mg/kg p.o.; 20 μg α-methyl 5-HT"}, "motor coordination": {"test_system": "motor coordination", "assay": "rotarod assay (motor coordination)", "format": "in vivo, mice", "conditions": "p.o., 60 min after administration", "description": "(§1) Locomotor activity, muscle relaxant effects and motor coordination were assessed as described previously (Ralvenius, W. T., Benke, D., Acuña, M. A., Rudolph, U. & Zeilhofer, H. U. Nature Communications, 2015, 6). […] Motor coordination was assessed with a rotarod accelerating from 4 rpm to 40 rpm within 5 min. […] Fifteen measurements were taken per mouse. To assess muscle relaxation, mice were placed with their forepaws onto a metal horizontal wire placed 20 cm above ground."}, "GABAARs": {"test_system": "GABAARs", "assay": "recombinant GABAARs in HEK293 cells, direct activation in the absence of GABA", "format": "cell-based", "description": "(§2) HEK293 cells were transfected using lipofectamine LTX (Dugue, G. P., et al. Neuron, 2009, 61, 126-139). To ensure expression of the γ2 subunit (required for modulation of GABAARs by BDZs) in all recorded cells, the inventors transfected cells with a plasmid expressing the γ2 subunit plus eGFP from an IRES, and only selected eGFP-positive cells for recordings. The transfection mixture contained (in μg): 1 α1, 1 β2, 3 γ2/eGFP (used as a marker of successful transfection) or 1 αx, 1 β3, 3 γ2/eGFP in case of α2, α3, or α5GABAARs. Recordings were made 18-36 hrs after transfection. Whole-cell patch-clamp recordings of GABA-evoked currents were made at room temperature (20-24° C.) and at a holding potential of −60 mV. Recording electrodes were filled with solution containing (in mM): 120 CsCl, 10 EGTA, 10 HEPES (pH 7.40), 4 MgCl2, 0.5 GTP and 2 ATP. The external solution contained (in mM): 150 NaCl, 10 KCl, 2.0 CaCl2, 1.0 MgCl2, 10 HEPES (pH 7.4), and 10 glucose. GABA was applied to the recorded cell using a manually controlled pulse (4-6 s) of a low sub-saturating GABA concentration (ECS). ECs values of GABA were determined for all subunit combinations analyzed. […] Imax was determined as the average maximal current elicited by a concentration of 1 mM GABA. […]"}, "chloroquine-induced itch [1]": {"test_system": "chloroquine-induced itch", "assay": "chloroquine-induced itch (thigh injection), intrathecal drug, wild-type mice", "format": "in vivo", "conditions": "0.3 mg/kg intrathecal; 100 μg chloroquine into right thigh", "description": "(§3) Acute itch was assessed in mice that received intradermal microinjections of pruritogens or 0.9% saline into the right cheek, which had been shaved at least one day before the experiment. In two sets of experiments that addressed the contribution of GABAARs in primary and secondary pruritoceptors, pruritogens were injected in the right thigh (FIG. 17). Before injection, mice were acclimatized to a 15 cm diameter cylindrical enclosure for more than 30 min with cage bedding on the ground. Background white noise generated by a radio in the room at ambient volume was applied to prevent auditory distraction. A 30 gauge needle was inserted bevel-up and pushed 5 mm horizontally into the skin beyond the point of insertion, before injection of the pruritogen (in a total volume of 10 μl). No anesthesia was used. Correct injection was confirmed by the appearance of a slightly domed bulla upon injection. […] Videos were analyzed off-line. Scratching of the hind paw directed to the ipsilateral cheek was counted in bouts, with one scratching bout defined as an instance when the mouse lifted its paw to scratch until it returned the paw to the cage floor. In case of experiments in which the pruritogen was injected in the skin of the thigh, the time spent biting the injected skin area was counted in s/min as a measure of itch."}, "α3 GABAARs": {"target": "T1, α3 GABAARs (Homo sapiens, UniProt P18507+P34903)", "T1 construct": "expressed in transfected cells; host or cells: HEK293 cells (ATCC), transient transfection", "T1 sequence (P34903 29-492)": "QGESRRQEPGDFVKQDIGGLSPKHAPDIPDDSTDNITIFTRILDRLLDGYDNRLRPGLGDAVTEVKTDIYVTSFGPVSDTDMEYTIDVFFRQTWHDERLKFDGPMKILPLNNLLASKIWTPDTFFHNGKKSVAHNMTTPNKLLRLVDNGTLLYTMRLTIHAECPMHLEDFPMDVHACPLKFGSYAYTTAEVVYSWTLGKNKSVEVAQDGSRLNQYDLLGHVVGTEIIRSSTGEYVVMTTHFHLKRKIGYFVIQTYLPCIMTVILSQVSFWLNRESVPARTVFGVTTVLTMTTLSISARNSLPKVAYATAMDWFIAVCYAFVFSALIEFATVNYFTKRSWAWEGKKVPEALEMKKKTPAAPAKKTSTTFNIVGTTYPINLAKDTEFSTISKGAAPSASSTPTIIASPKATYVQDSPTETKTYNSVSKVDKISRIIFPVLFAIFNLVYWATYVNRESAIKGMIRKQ", "T1 sequence (P28472 26-473 partner)": "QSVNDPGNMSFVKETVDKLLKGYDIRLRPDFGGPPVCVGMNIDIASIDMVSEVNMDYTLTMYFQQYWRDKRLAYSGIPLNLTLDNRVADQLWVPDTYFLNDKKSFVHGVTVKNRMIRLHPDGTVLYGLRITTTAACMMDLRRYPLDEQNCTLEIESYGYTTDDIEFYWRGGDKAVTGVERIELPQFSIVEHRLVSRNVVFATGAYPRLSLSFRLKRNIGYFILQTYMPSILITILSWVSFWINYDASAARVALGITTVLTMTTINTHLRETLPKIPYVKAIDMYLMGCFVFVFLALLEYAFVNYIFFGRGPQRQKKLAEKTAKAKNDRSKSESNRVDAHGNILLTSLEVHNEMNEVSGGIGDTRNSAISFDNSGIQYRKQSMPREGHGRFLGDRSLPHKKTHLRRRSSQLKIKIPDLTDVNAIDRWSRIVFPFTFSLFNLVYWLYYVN", "T1 sequence (P18507 40-467 limits assumed)": "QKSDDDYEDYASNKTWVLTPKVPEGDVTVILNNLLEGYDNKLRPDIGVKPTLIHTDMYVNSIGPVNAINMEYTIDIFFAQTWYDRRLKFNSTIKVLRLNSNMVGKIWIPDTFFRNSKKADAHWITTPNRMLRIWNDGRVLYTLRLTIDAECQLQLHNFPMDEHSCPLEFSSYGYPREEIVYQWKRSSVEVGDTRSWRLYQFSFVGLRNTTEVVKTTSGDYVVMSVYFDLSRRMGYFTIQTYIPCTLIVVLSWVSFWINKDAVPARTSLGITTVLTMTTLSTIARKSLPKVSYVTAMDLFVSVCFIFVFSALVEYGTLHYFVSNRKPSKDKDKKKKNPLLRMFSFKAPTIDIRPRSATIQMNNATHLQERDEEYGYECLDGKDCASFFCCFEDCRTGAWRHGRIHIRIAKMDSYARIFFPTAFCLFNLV", "assay": "GABA-evoked currents, recombinant GABAARs in HEK293 cells (α3)", "format": "cell-based", "conditions": "HEK293 cells transiently transfected", "description": "as §2"}, "[2]": {"target": "T2, α2GABAARs with H→R point mutation in the α2 subunit (Homo sapiens, UniProt P18507+P47869, H129R)", "T2 construct": "expressed in transfected cells; host or cells: HEK 293 cells, transient transfection", "T2 sequence (P47869 29-451 H129R)": "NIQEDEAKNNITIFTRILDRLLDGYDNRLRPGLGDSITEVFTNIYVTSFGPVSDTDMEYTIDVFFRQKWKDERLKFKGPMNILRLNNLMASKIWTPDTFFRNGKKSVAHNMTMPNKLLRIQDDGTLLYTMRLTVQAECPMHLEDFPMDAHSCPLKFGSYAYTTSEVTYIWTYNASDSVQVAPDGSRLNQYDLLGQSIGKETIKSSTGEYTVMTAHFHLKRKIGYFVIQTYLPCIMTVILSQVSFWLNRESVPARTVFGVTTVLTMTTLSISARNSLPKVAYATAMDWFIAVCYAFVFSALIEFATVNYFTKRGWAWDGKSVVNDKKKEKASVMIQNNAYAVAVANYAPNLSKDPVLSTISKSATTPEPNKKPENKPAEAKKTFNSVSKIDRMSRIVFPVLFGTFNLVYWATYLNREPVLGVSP", "T2 sequence (P28472 26-473 partner)": "as the sequence (P28472 26-473 partner) above", "T2 sequence (P18507 40-467 limits assumed)": "as the sequence (P18507 40-467 limits assumed) above", "assay": "positive allosteric modulation of H→R point-mutated α2GABAARs in HEK 293 cells", "format": "cell-based", "conditions": "1 μM", "description": "as §2"}, "α1 GABAARs": {"target": "T3, α1 GABAARs (Homo sapiens, UniProt P14867+P18507)", "T3 construct": "expressed in transfected cells; host or cells: HEK293 cells (ATCC), transient transfection", "T3 sequence (P14867 28-456)": "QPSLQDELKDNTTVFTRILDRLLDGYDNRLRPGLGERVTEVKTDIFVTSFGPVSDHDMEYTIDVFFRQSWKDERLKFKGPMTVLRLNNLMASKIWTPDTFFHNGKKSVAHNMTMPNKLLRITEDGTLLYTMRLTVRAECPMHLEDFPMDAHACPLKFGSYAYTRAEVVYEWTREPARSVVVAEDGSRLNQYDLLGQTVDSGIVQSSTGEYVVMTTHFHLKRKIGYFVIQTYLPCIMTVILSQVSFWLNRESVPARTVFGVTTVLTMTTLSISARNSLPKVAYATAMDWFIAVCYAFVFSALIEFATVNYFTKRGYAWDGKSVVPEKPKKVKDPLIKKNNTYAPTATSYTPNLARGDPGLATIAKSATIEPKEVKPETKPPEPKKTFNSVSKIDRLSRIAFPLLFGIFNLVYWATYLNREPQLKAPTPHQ", "T3 sequence (P47870 25-512 partner limits assumed)": "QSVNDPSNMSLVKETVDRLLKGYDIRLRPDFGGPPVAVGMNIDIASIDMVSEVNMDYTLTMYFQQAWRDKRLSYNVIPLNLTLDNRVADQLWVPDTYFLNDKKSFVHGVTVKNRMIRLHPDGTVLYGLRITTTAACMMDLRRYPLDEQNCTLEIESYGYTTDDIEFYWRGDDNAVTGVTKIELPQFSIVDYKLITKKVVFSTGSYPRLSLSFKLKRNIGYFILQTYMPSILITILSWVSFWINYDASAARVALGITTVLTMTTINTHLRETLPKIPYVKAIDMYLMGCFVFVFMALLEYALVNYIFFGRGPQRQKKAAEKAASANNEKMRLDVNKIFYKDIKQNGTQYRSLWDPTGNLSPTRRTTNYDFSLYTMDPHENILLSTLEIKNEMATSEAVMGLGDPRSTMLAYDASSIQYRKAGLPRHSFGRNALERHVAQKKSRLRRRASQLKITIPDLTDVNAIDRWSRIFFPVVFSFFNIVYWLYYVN", "T3 sequence (P18507 40-467 limits assumed)": "as the sequence (P18507 40-467 limits assumed) above", "assay": "GABA-evoked currents, recombinant GABAARs in HEK293 cells (α1)", "format": "cell-based", "conditions": "HEK293 cells transiently transfected", "description": "as §2"}, "locomotor activity": {"test_system": "locomotor activity", "assay": "open field test, locomotor activity / sedation", "format": "in vivo, wild-type mice", "description": "After injection, the mice were placed in an open field arena and their activity was recorded for one hour starting one hour after injection.\nas §1"}, "[3]": {"test_system": "brain membranes prepared from α1,2,3,5 H→R point mutated mice", "format": "binding, mice (RRRR)", "conditions": "4 nM [3H]Ro 15-4513; increasing concentrations; n=4", "description": "The supernatant was centrifuged for 20 min at 30,000 g and the resulting crude membrane pellet was washed once with buffer. […] Non-specific [^3H]Ro 15-4513 binding was assessed by addition of 10 μM flumazenil to the reaction. Incubation was stopped by rapid vacuum filtration using a semiautomatic cell harvester (Skatron Instruments) and washed filters were subjected to liquid scintillation counting."}, "histamine-induced itch": {"test_system": "histamine-induced itch", "assay": "histamine-induced itch (cheek injection) in wild-type mice", "format": "in vivo, wild-type C57BL6/J mice", "conditions": "per oral 0.01, 0.03, 0.1, 1 and 3 mg/kg 90 min before 100 μg histamine; 30 min", "description": "as §3"}, "α2GABAARs": {"test_system": "α2GABAARs", "assay": "chloroquine-induced biting (thigh injection) in hoxB8-α2−/−, α2fl/fl and α2 (H→R) mice", "format": "in vivo", "conditions": "1 mg/kg p.o., 100 μg chloroquine thigh", "description": "as §3"}, "muscle relaxation": {"test_system": "muscle relaxation", "assay": "horizontal wire test (muscle relaxation)", "format": "in vivo, mice", "conditions": "p.o., 60-120 min after administration", "description": "as §1"}, "[4]": {"test_system": "benzodiazepine binding site of GABAARs", "assay": "α-methyl 5-HT-induced itch in HRRR mice (α2, α3, α5 GABAARs benzodiazepine-insensitive)", "format": "in vivo", "conditions": "1 mg/kg p.o.; 20 μg α-methyl 5-HT", "description": "as §3"}, "α5GABAARs": {"test_system": "α5GABAARs", "assay": "GABA-evoked currents, recombinant GABAARs in HEK293 cells (α5)", "format": "cell-based", "conditions": "HEK293 cells transiently transfected", "description": "as §2"}, "α2β3γ2 GABAARs": {"target": "T4, α2β3γ2 GABAARs (Homo sapiens, UniProt P18507+P47869)", "T4 construct": "expressed in transfected cells; host or cells: HEK293 cells (ATCC), transient transfection", "T4 sequence (P47869 29-451)": "as the sequence (P47869 29-451 H129R) above, with R101H counted along it", "T4 sequence (P28472 26-473 partner)": "as the sequence (P28472 26-473 partner) above", "T4 sequence (P18507 40-467 limits assumed)": "as the sequence (P18507 40-467 limits assumed) above", "assay": "GABA-evoked currents, recombinant GABAARs in HEK293 cells (α2)", "format": "cell-based", "conditions": "HEK293 cells transiently transfected", "description": "as §2"}, "chloroquine-induced itch [5]": {"test_system": "chloroquine-induced itch", "assay": "chloroquine-induced itch (cheek injection) in wild-type mice", "format": "in vivo, wild-type C57BL6/J mice", "conditions": "p.o.; wild-type mice; 100 μg chloroquine", "description": "as §3"}}}
{"smiles": "CC(C)(O)c1cnn2c(-c3ccc(F)c(-c4c(F)cccc4C#N)c3)cnc2n1", "note": "[TPA023B, 6,2′-difluoro-5′-[3-(1-hydroxy-1-methylethyl)imidazo[1,2-b][1,2,4]triazin-7-yl]biphenyl-2-carbonitrile]", "values": [{"measurement": "antipruritic action in wild-type mice", "setting": "α-Me-5HT-induced itch", "result": "strong antipruritic actions"}, {"measurement": "motor coordination in the rotarod assay", "setting": "motor coordination", "result": "did not reduce motor coordination"}, {"measurement": "activation of GABAARs in the absence of GABA", "setting": "GABAARs", "result": "did not activate"}, {"measurement": "antipruritic action after intrathecal injection (biting time, scratching bouts 0-10 min)", "setting": "chloroquine-induced itch [1]", "result": "antipruritic action"}, {"measurement": "activity at the benzodiazepine binding site (potentiation of GABA-induced currents)", "setting": "α3 GABAARs", "result": "partial agonistic activity"}, {"measurement": "positive allosteric modulation of H→R point-mutated α2GABAARs", "setting": "[2]", "result": "abolished"}, {"measurement": "potentiation of GABA-induced currents", "setting": "α1 GABAARs", "result": "did not potentiate GABA-induced currents"}, {"measurement": "locomotor activity in the open field test", "setting": "locomotor activity; 1 and 3 mg/kg p.o.", "result": "increased locomotor activity"}, {"measurement": "sedative effects", "setting": "locomotor activity; doses up to 3 mg/kg (p.o.)", "result": "did not show sedative effects"}, {"measurement": "activity in open field arena vs vehicle", "setting": "locomotor activity; per oral 10 mg/kg and 30 mg/kg, recorded 1-2 h after injection", "result": "significant increase in activity"}, {"measurement": "displacement of [3H]Ro 15-4513 binding", "setting": "[3]", "result": "failed to displace"}, {"measurement": "scratching bouts, histamine-induced itch", "setting": "histamine-induced itch", "result": "dose-dependent reduction of scratching bouts"}, {"measurement": "biting responses, hoxB8-α2−/− mice vs global α2R/R mice", "setting": "α2GABAARs", "result": "No significant difference"}, {"measurement": "biting responses in treated mice compared between genotypes", "setting": "α2GABAARs; hoxB8-α2−/−, α2fl/fl and α2 (H→R) mice", "result": "differed significantly between genotypes"}, {"measurement": "muscle relaxation in the horizontal wire test", "setting": "muscle relaxation", "result": "did not cause muscle relaxation"}, {"measurement": "antipruritic action in HRRR mice", "setting": "[4]", "result": "completely lost its antipruritic action"}, {"measurement": "potentiation of GABA-induced currents", "setting": "α5GABAARs", "result": "only very weak potentiating effects"}, {"measurement": "activity at the benzodiazepine binding site (potentiation of GABA-induced currents)", "setting": "α2β3γ2 GABAARs", "result": "partial agonistic activity"}, {"measurement": "doses at which chloroquine-induced scratching behavior was reduced", "setting": "chloroquine-induced itch [5]", "result": 0.03, "unit": "mg/kg"}]}
